Measured values reported in US5760032A, “Thienylazole compound and thienotriazolodiazepine compound” (Yoshitomi Pharmaceutical Industries, Ltd., priority 1994, dated 1998).
Read-outs that look alike come from different tables or passages of the source.

Columns and labels:
[1] = target: T1, CCK-A receptor (Pancreas) (Rattus norvegicus, UniProt P30551); assay: Binding to CCK receptor, pancreas membranes, inhibition of 125I-CCK-8 specific binding
T1 construct: Whole pancreas was removed from male Wister rats; from tissue; host or cells: rat pancreas membranes (male Wistar rats)
T1 sequence (P30551 1-444): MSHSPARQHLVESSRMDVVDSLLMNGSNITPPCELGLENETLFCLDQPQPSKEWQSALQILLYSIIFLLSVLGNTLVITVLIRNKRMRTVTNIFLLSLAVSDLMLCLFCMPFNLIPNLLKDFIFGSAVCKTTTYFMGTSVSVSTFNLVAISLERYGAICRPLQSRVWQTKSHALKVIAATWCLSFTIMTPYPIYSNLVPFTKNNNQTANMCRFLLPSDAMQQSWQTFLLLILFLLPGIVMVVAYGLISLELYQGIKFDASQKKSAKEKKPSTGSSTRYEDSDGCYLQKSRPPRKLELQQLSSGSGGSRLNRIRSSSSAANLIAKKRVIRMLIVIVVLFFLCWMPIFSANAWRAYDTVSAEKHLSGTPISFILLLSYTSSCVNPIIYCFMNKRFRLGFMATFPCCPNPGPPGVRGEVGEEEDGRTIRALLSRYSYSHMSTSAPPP
Procedure: (§1) Whole pancreas was removed from male Wister rats. Fat tissue was removed and the pancreas was homogenized (Blinkman Polytron PT20) in 10 mM MES buffer (0.02% Bacitracin, 0.02% soy bean-derived trypsin inhibitor, 0.0001% phenylmethanesulfonyl fluoride, pH 6.5). The homogenate was passed through a nylon cloth (120 mesh) and the filtrate was centrifuged at 40,000×g for 15 minutes. The obtained sediment was homogenized in Tris buffer and centrifuged in the same manner as above. The sediment was suspended in a buffer for binding assay (50 mM MES containing 130 mM sodium chloride, 4.7 mM potassium chloride, 5 mM magnesium chloride, 0.02% Bacitracin, 0.0001% phenylmethanesulfonyl fluoride, pH 6.5) and used as a peripheral receptor source. In the case of central tissue, rat cerebral cortex was used for the preparation by suspending same in a buffer (pH 6.5) containing 5 mM magnesium chloride, 1 mM EGTA [ethylene glycol bis(2-aminoethylether)tetraacetic acid], 360 mM sodium chloride, 15 mM potassium chloride, 20 mM HEPES (N-2-hydroxyethylpiperazine-N'-2-ethanesulfonic acid) and 0.25 mg/ml Bacitracin. For binding assay, 50 μl buffer (for total binding use) and unlabelled CCK-8 sulfate (for non-specific binding) having a final concentration of 1 μM or a test compound (^125 I-CCK-8, 63-67 TBq/mmol, 40,000-50,000 cpm, 50 μl) were added to a membrane suspension (450 μl, containing 100 μg as protein). The reaction mixture was incubated at 20° C. for 30 minutes and filtered through a glass fiber filter (Whatman G/FB) by suction. Immediately thereafter, the filter was washed three times with ice-cold Tris buffer (2.5 ml) and the radioactivity on the filter was determined.
(§2) The effects of the test compound on the CCK receptor binding were evaluated by the concentration (IC50, nM) necessary for inhibiting the specific binding by 50%, which was obtained by calculating the inhibition ratio by the following formula: [formula]
(§3) The results of the effects of the test compounds on the CCK receptor binding are shown in the following

CCK-B receptor (Brain) = target: T2, CCK-B receptor (Brain) (Rattus norvegicus, UniProt P30553); assay: Binding to CCK receptor, cerebral cortex membranes, inhibition of 125I-CCK-8 specific binding; details: pH 6.5, 20° C., 30 minutes
T2 construct: from tissue; host or cells: rat cerebral cortex membranes
T2 sequence (P30553 1-452): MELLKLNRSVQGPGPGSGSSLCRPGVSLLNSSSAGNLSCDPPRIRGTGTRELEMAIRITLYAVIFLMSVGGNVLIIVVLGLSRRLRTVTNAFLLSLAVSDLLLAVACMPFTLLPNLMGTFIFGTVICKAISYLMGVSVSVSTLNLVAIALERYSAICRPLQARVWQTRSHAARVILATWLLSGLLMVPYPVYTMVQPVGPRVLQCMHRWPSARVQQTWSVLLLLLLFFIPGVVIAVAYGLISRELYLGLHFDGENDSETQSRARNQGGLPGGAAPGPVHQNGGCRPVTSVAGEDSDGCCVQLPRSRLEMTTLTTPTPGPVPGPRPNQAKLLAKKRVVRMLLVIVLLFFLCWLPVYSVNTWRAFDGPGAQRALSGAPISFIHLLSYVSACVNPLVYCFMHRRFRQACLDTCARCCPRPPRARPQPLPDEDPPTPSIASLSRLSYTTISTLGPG
Procedure: as §1, §2, §3

[2] = system: CCK-8-induced secretion of pancreatic juice (trypsin secretion); assay: Effects on CCK-induced secretion of pancreatic juice in guinea pig under anesthesia; type: in vivo; details: 300 μg/kg intravenous, 5 minutes before second CCK-8 (0.1 μg/kg i.v.); male guinea pigs under urethane anesthesia
Procedure: Effects on CCK-induced secretion of pancreatic juice in guinea pig under anesthesia
Male guinea pigs weighing about 650 g were anesthetized by subcutaneous administration of urethane (1.6 g/kg), and a cannula for injection of perfusing solution was inserted into the pyloric part of stomach and a discharge cannula was inserted at a position 2 cm distal from Treitz ligament. Duodenum was perfused with physiological saline at a rate of 8 ml/15 min, and trypsin secretion in the perfusate was determined. For the determination, Na-benzoyl-arginine p-nitroanilide (BAPNA) was used as a synthetic substrate and spectrophotometer was used for the determination. Secretion of pancreatic juice was induced by an intravenous administration of CCK-8 (0.1 μg/kg), and 60 minutes later, CCK-8 was administered again. The inhibition ratio of the test compound which was intravenously administered at 5 minutes before the second administration of CCK-8 was calculated by the following formula: [formula]
The effects of the test compounds on inhibition of secretion of pancreatic juice induced by CCK receptor in guinea pig under anesthesia are shown in the following

[3] = rat pancreas membranes, 125I-CCK-8, pH 6.5, 20° C., 30 minutes, read-out: Pancreas (CCK-A) IC50

| SMILES | IC50 [1, 3] | IC50 (CCK-B receptor (Brain)) | Inhibition of CCK-8-induced secretion of pancreatic juice [2] | IC50 [1] |
| --- | --- | --- | --- | --- |
| CCc1cc(C(=O)c2ccccc2Cl)c(-n2c(C)nnc2CNC(=O)c2ccc(Cl)c(Cl)c2)s1 [Example 11, N-(4-(3-(2-chlorobenzoyl)-5-ethylthiophen-2-yl)-5-methyl[1,2,4]triazol-3-ylmethyl)-3,4-dichlorobenzamide] | 7.5 nM | > 1000 nM |  |  |
| CCc1cc(C(=O)c2ccccc2Cl)c(-n2c(C)nnc2CNC(=O)c2cc3ccccc3[nH]2)s1 [Example 14, N-(4-(3-(2-chlorobenzoyl)-5-ethylthiophen-2-yl)-5-methyl[1,2,4]triazol-3-ylmethyl)indole-2-carboxamide] | 3.7 nM | > 1000 nM |  |  |
| CCc1cc(C(=O)c2ccccc2Cl)c(-n2c(C)nnc2CNC(=O)c2cc3ccccc3n2CC(=O)O)s1 [Example 19, 2-(4-(3-(2-chlorobenzoyl)-5-ethylthiophen-2-yl)-5-methyl[1,2,4]triazol-3-ylmethylcarbamoyl)indole-1-acetic acid] | 10.6 nM | > 1000 nM | 81.9 ± 5.9% |  |
| CCc1cc(C(=O)c2ccccc2Cl)c(-n2c(C)nnc2CNC(=O)Nc2cccc(C)c2)s1 [Example 26, N-(4-(3-(2-chlorobenzoyl)-5-ethylthiophen-2-yl)-5-methyl[1,2,4]triazol-3-ylmethyl)-N'-(3-methylphenyl)urea] | 5.6 nM | > 1000 nM |  |  |
| CCc1cc(C(=O)c2ccccc2Cl)c(-n2c(C)nnc2CNC(=O)Nc2cccc(OC)c2)s1 [Example 27, N-(4-(3-(2-chlorobenzoyl)-5-ethylthiophen-2-yl)-5-methyl[1,2,4]triazol-3-ylmethyl)-N'-(3-methoxyphenyl)urea] | 4.8 nM | > 1000 nM |  |  |
| CCc1cc2c(s1)-n1c(nnc1CNC(=O)c1ccc(Cl)c(Cl)c1)CN=C2c1ccccc1Cl [Example 59, N-(4-(2-chlorophenyl)-2-ethyl-6H-thieno[3,2-f] [1,2,4]triazolo[4,3-a] [1,4]diazepin-9-ylmethyl)-3,4-dichlorobenzamide] |  | > 1000 nM |  | 13 nM |
| CCc1cc(C(=O)c2ccccc2Cl)c(-n2c(Br)nnc2CNC(=O)c2cc3ccccc3[nH]2)s1 [Example 72, N-(3-bromo-4-(3-(2-chlorobenzoyl)-5-ethylthiophen-2-yl) [1,2,4]triazol-5-ylmethyl)indole-2-carboxamide] | 3.2 nM | > 1000 nM |  |  |
| Cc1nnc(CNC(=O)c2cc3ccccc3[nH]2)n1-c1sc(C(=O)O)cc1C(=O)c1ccccc1Cl [Example 252, (3-(2-chlorobenzoyl)-2-(3-(2-indolecarbonylaminomethyl)-5-methyl[1,2,4]triazol-4-yl)thiophen-5-yl)carboxylic acid] | 6.6 nM | > 1000 nM | 82.6 ± 2.6% |  |
| CCc1cc2c(s1)-n1c(nnc1[C@@H](CCC(=O)O)NC(=O)c1ccc(Cl)c(Cl)c1)CN=C2c1ccccc1Cl [Example 277, (R)-(-)-4-(3,4-dichlorobenzoylamino)-4-(4-(2-chlorophenyl)-2-ethyl-6H-thieno[3,2-f] [1,2,4]triazolo[4,3-a] [1,4]diazepin-9-yl)butanoic acid] |  | > 1000 nM | 85.1 ± 12.1% | 9.6 nM |
| CCc1cc2c(s1)-n1c(nnc1[C@@H](CCC(=O)O)NC(=O)c1cc3ccccc3[nH]1)CN=C2c1ccccc1Cl [Example 280, (R)-(-)-4-(4-(2-chlorophenyl)-2-ethyl-6H-thieno[3,2-f] [1,2,4]triazolo[4,3-a] [1,4]diazepin-9-yl)-4-(1H-indole-2-carboxamide)butanoic acid] |  | > 1000 nM | 78.1 ± 7.6% | 2.7 nM |
| CCc1cc(C(=O)c2ccccc2Cl)c(-n2c(C)nnc2CNC(=O)c2ccc(Cl)cc2N)s1 [Example 338, 2-amino-4-chloro-N-(4-(3-(2-chlorobenzoyl)-5-ethylthiophen-2-yl)-5-methyl[1,2,4]triazol-3-ylmethyl)benzamide] | 7.6 nM | > 1000 nM |  |  |
